Measurements as given in patent US4806361A, “Medicaments in sustained release unit dose form” (Sterling Drug Inc., priority 1984, dated 1989).

Assays:
[1] = Urinary recovery of active ingredient over 0-24 hours (HPLC); parameters: species or system human; settings: in vivo
Experimental: After measuring volume and pH, aliquots were stored below -15° C. pending assay for the active ingredient by a validated HPLC procedure.
The resulting linear regression was used to determine urine concentrations of the active ingredient in each sample. Recovered amounts of the active ingredient were then calculated from the urine volume for the collection period of each sample.

[2] = pH 6.0-7.0; cited from earlier work

With `Cc1[nH]c(=O)c(C#N)cc1-c1ccncc1` [1,2-dihydro-3-cyano-6-methyl-5-(4-pyridinyl)-2(1H)-pyridinone] as the compound, how does the “Excretion” value [1] read?
The value was “excreted in the urine”.

What about the “Metabolism” value [1] of the same compound?
Its value is “only slightly metabolized”.

For `OCCN(CCO)c1nc(N2CCCCC2)c2nc(N(CCO)CCO)nc(N3CCCCC3)c2n1` [dipyridamole], which “Solubility” value [2] is on record?
Its value is “insoluble”.
